One substance from patent publication US7964573B2, “Regulating expression of transient receptor potential channel genes” (The Regents of the University of California, priority 2005, dated 2011) can be followed below.

Data set [1] deals with TRPC6. The experiment in a line: TRPC6 mRNA and protein expression in IPAH-PASMC after siRNA transfection (RT-PCR, Western blot). The class given is cell-based, human. The conditions noted are these: for TRPC6 protein expression: IPAH-PASMC, transfected. How it is done:
(§1) Another aspect relates to the use of siRNA to inhibit the expression of TRPC6 gene. Human PASMC were isolated and cultured from normal subjects (normal PASMC) and subjects with IPAH (IPAH-PASMC). Levels of canonical TRP (TRPC) isoforms (mRNA and protein) were measured using RT-PCR and Western blot analysis. In addition, levels of TRPC6 in vivo were measured and compared with levels of Ki67, a nuclear protein expressed during S and G2/M phase of the cell cycle, using in situ immunofluorescence staining of proliferating PASMC (see Kuga et al. (1996) Circ. Res. 79:14-19). Cell cycle phase was determined by BrdU uptake and by [^3H]-thymidine incorporation into DNA. PASMC were incubated with [^3H]-thymidine for 16 hours following 24 hours of growth arrest and 48 hours of growth induction and measuring percent extent of radiolabel incorporation into precipitated DNA.
(§2) In separate experiments, siRNA was used to prevent expression and translation of the TRPC6 gene in vitro. Several fragments of open reading frames in the TRPC6 gene were identified which suppressed expression of TRPC6 protein and mRNA levels. […] A scrambled siRNA vector served as a non-silencing control.

Data set [2] relates to TRPC6. The experiment in a line: siRNA suppression of TRPC6 protein and mRNA levels in COS-7 cells. It is filed as cell-based.
Text: as §2

For a further data set, the system named is IPAH-PASMC. In words: [3H]-thymidine incorporation (proliferation) in IPAH-PASMC. The conditions noted are these: proliferating IPAH-PASMC, transfected. It is filed as cell-based, human. As to the method:
as §1, §2

Entries after “also recorded” stand apart in the source; their conditions may differ.

Regarding “TRPC6 siRNA-2: siRNA against the TRPC6 gene, sequence AAGGTCTTTATGCAATTGCTG (SEQ ID NO: 5) (listed as DNA, chemistry not given here)”, the TRPC6 protein expression result in the data set on TRPC6 [1] is listed as “significantly decreased; also recorded: attenuates”; in the data set on TRPC6 [1] (listed as TRPC6 siRNA (SEQ ID NO: 5)), “significantly inhibits”. Also, the “TRPC6 mRNA expression level” value with TRPC6 [1] (PASMC from patients with IPAH) is reported as “significantly inhibits”. Besides, the “suppression of expression of TRPC6 protein and mRNA levels” value with TRPC6 [2] was “most effective”. In addition, the “[3H]-thymidine incorporation (proliferation)” value with IPAH-PASMC (listed as TRPC6-siRNA) is “markedly attenuated”; in the data set with IPAH-PASMC (listed as TRPC6 siRNA), “significantly decreased; also recorded: attenuates”.
